Experimental data published in ChEMBL document CHEMBL6083182, “Development of Peptide Paratope Mimics Derived from the Anti-ROR1 Antibody and Long-Acting Peptide-Drug Conjugates for Targeted Cancer Therapy” (J Med Chem, 2024).
Active and inactive are the calls of the source. The rule behind the calls is not given here. Where a SMILES comes first, the peptide text is derived from it. [ ]: non-standard residue; d: D form. The star is where a group is joined. X1 = COc1cccc2c1C(=O)c1c(O)c3c(c(O)c1C2=O)C[C@@](O)(C(=O)CO)C[C@@H]3O[C@H]1C[C@H](NC(=O)OCc2ccc(NC(=O)C(CCCNC(N)=O)NC(=O)C(NC(=O)CCCCCN3C(=O)CC(*)C3=O)C(C)C)cc2)[C@H](O)[C@H](C)O1; C18 diacid = O=C(O)CCCCCCCCCCCCCCCCC(=O)*; AEEA = NCCOCCOCC(=O)O

Assays:
[1] = test system: MDA-MB-231; experiment: Cytotoxicity against ROR1-positive human MDA-MB-231 cells assessed as decrease in cell viability incubated for 24 hrs by CCK-8 assay; type: functional, cell-based; details: MDA-MB-231, 24 h
[2] = test system: SK-HEP1; experiment: Cytotoxicity against human SK-HEP1 cells assessed as decrease in cell viability incubated for 24 hrs by CCK-8 assay; type: functional, cell-based; details: SK-HEP1, 24 h
[3] = test system: MCF7; experiment: Cytotoxicity against ROR1-negative human MCF7 cells assessed as decrease in cell viability incubated for 24 hrs by CCK-8 assay; type: functional, cell-based; details: MCF7, 24 h
[4] = Cytotoxicity against human MCF-10A cells assessed as decrease in cell viability incubated for 24 hrs by CCK-8 assay; type: toxicity, cell-based
[5] = Half life in Sprague-Dawley rat at 15 mg/kg, iv measured upto 12 hrs by UPLC-QTOF/MS analysis; type: ADME, organism-based; details: in vivo
[6] = Clearance in Sprague-Dawley rat at 15 mg/kg, iv measured upto 12 hrs by UPLC-QTOF/MS analysis; type: ADME, organism-based; details: in vivo
[7] = AUC(0 to t) in Sprague-Dawley rat at 15 mg/kg, iv measured upto 12 hrs by UPLC-QTOF/MS analysis; type: ADME, organism-based; details: in vivo
[8] = AUC(0 to infinity) in Sprague-Dawley rat at 15 mg/kg, iv measured upto 12 hrs by UPLC-QTOF/MS analysis; type: ADME, organism-based; details: in vivo
[9] = Area under the first moment curve in Sprague-Dawley rat at 15 mg/kg, iv measured upto 12 hrs by UPLC-QTOF/MS analysis; type: ADME, organism-based; details: in vivo
[10] = MRT in Sprague-Dawley rat at 15 mg/kg, iv measured upto 12 hrs by UPLC-QTOF/MS analysis; type: ADME, organism-based; details: in vivo
[11] = target: Inactive tyrosine-protein kinase transmembrane receptor ROR1 (Homo sapiens, UniProt Q01973); experiment: Binding affinity to N-terminal His/GST-tagged recombinant human ROR1 (453 to 783 residues) extracted from baculovirus infected insect cells assessed as dissociation constant by SPR analysis
Sequence of Inactive tyrosine-protein kinase transmembrane receptor ROR1 (Q01973 whole entry, the tested form may be a part): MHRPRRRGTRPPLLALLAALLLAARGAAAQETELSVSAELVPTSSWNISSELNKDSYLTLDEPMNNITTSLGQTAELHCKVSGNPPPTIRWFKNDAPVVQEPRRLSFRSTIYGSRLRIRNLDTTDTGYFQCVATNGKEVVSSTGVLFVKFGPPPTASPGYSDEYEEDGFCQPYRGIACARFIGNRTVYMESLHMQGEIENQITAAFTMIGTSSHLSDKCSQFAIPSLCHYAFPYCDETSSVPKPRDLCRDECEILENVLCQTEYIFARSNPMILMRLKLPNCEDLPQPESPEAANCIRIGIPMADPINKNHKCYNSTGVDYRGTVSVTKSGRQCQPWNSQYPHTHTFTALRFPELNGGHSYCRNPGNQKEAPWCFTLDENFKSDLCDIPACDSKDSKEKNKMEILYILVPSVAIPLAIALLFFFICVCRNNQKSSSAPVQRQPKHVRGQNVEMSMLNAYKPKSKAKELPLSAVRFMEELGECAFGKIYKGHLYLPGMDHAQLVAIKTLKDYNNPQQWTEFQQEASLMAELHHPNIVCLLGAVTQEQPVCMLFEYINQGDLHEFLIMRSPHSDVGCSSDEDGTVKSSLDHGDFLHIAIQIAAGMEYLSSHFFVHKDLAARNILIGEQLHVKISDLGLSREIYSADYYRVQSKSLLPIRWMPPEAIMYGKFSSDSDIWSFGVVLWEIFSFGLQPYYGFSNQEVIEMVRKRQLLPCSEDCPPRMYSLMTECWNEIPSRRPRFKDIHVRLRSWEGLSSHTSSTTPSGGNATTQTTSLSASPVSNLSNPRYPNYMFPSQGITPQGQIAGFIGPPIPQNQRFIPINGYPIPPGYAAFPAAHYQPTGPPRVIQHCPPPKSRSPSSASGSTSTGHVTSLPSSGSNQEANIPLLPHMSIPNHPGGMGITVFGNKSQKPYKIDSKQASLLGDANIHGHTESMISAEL

[12] = Drug uptake in ROR1-positive human MDA-MB-231 cells cytoplasm assessed as increase in red fluorescence at 10 uM measured after 2 hrs by Hoechst 33342 staining based confocal fluorescence microscopic analysis; type: ADME, subcellular; details: mda-mb-231, 2 h
[13] = Drug uptake in ROR1-negative human MCF7 cells assessed as increase in fluorescence intensity at 10 uM incubated for 2 hrs by Hoechst 33342 staining based confocal fluorescence microscopic analysis; type: ADME, cell-based; details: mcf7, 2 h
[14] = test system: MDA-MB-231; experiment: Induction of apoptosis in human MDA-MB-231 cells at 10 uM incubated for 24 hrs by Annexin V-FITC/PI staining based flow cytometric analysis; type: functional, cell-based
[15] = test system: MDA-MB-231; experiment: Induction of apoptosis in human MDA-MB-231 cells assessed as viable cells at 16 nM incubated for 24 hrs by AnnexinV-FITC/PI staining based flow cytometry (reference value: 99.9%); type: functional; details: read-out: Activity
[16] = test system: MDA-MB-231; experiment: Induction of apoptosis in human MDA-MB-231 cells assessed as early apoptotic cells at 16 nM incubated for 24 hrs by AnnexinV-FITC/PI staining based flow cytometry (reference value: 0%); type: functional
[17] = test system: MDA-MB-231; experiment: Induction of apoptosis in human MDA-MB-231 cells assessed as late apoptotic cells at 16 nM incubated for 24 hrs by AnnexinV-FITC/PI staining based flow cytometry (reference value: 0.034%); type: functional
[18] = test system: MDA-MB-231; experiment: Induction of apoptosis in human MDA-MB-231 cells assessed as necrotic cells at 16 nM incubated for 24 hrs by AnnexinV-FITC/PI staining based flow cytometry (reference value: 0.034%); type: functional
[19] = test system: MDA-MB-231; experiment: Induction of apoptosis in human MDA-MB-231 cells assessed as viable cells at 15 nM incubated for 24 hrs by AnnexinV-FITC/PI staining based flow cytometry (reference value: 99.9%); type: functional; details: read-out: Activity
[20] = test system: MDA-MB-231; experiment: Induction of apoptosis in human MDA-MB-231 cells assessed as early apoptotic cells at 15 nM incubated for 24 hrs by AnnexinV-FITC/PI staining based flow cytometry (reference value: 0%); type: functional
[21] = test system: MDA-MB-231; experiment: Induction of apoptosis in human MDA-MB-231 cells assessed as late apoptotic cells at 15 nM incubated for 24 hrs by AnnexinV-FITC/PI staining based flow cytometry (reference value: 0.034%); type: functional
[22] = test system: MDA-MB-231; experiment: Induction of apoptosis in human MDA-MB-231 cells assessed as necrotic cells at 15 nM incubated for 24 hrs by AnnexinV-FITC/PI staining based flow cytometry (reference value: 0.034%); type: functional
[23] = Toxicity in BALB/c nude mouse xenografted with human MDA-MB-231 cells assessed as change in body weight at 5 mg/kg, iv measured after first injection starting from day 3 on day 6; type: organism-based; details: in vivo, 72 h, time 3 day
[24] = test system: MDA-MB-231; experiment: Antitumor activity against human MDA-MB-231 cells xenografted in BALB/c nude mouse assessed as reduction in tumor volume at 5 mg/kg, iv measured after first injection starting from day 3 on day 6; type: functional, organism-based; details: time 3.0 day
[25] = Toxicity in BALB/c nude mouse xenografted with human MDA-MB-231 cells assessed as body weight loss at 5 mg/kg, iv administered once every 3 days for 27 days starting from day 3; type: organism-based; details: in vivo, 576 h, time 24 day
[26] = test system: MDA-MB-231; experiment: Antitumor activity against human MDA-MB-231 cells xenografted in BALB/c nude mouse assessed as tumor growth inhibition at 5 mg/kg, iv administered once every 3 days for 27 days starting from day 3; type: functional, organism-based; details: time 24.0 day
[27] = Toxicity in BALB/c nude mouse xenografted with human MDA-MB-231 cells assessed as effect on heart at 5 mg/kg, iv administered once every 3 days for 27 days starting from day 3 by H and E staining based analysis; type: organism-based; details: in vivo, 576 h, time 24 day
[28] = Toxicity in BALB/c nude mouse xenografted with human MDA-MB-231 cells assessed as effect on liver at 5 mg/kg, iv administered once every 3 days for 27 days starting from day 3 by H and E staining based analysis; type: organism-based; details: in vivo, 576 h, time 24 day
[29] = Toxicity in BALB/c nude mouse xenografted with human MDA-MB-231 cells assessed as effect on spleen at 5 mg/kg, iv administered once every 3 days for 27 days starting from day 3 by H and E staining based analysis; type: organism-based; details: in vivo, 576 h, time 24 day
[30] = Toxicity in BALB/c nude mouse xenografted with human MDA-MB-231 cells assessed as effect on lung at 5 mg/kg, iv administered once every 3 days for 27 days starting from day 3 by H and E staining based analysis; type: organism-based; details: in vivo
[31] = Toxicity in BALB/c nude mouse xenografted with human MDA-MB-231 cells assessed as effect on kidney at 5 mg/kg, iv administered once every 3 days for 27 days starting from day 3 by H and E staining based analysis; type: organism-based; details: in vivo
[32] = Toxicity in BALB/c nude mouse xenografted with human MDA-MB-231 cells assessed as effect on ALT level at 5 mg/kg, iv administered once every 3 days for 27 days starting from day 3; type: organism-based; details: in vivo, 576 h, time 24 day
[33] = Toxicity in BALB/c nude mouse xenografted in human MDA-MB-231 cells assessed as effect on AST level at 5 mg/kg, iv administered once every 3 days for 27 days starting from day 3; type: organism-based; details: in vivo, 576 h, time 24 day
[34] = Elimination rate constant in Sprague-Dawley rat at 15 mg/kg, iv measured upto 12 hrs by UPLC-QTOF/MS analysis; type: ADME, organism-based; details: in vivo

## CC[C@H](C)[C@H](NC(=O)[C@H](CC(=O)O)NC(=O)[C@H](CO)NC(=O)CNC(=O)[C@H](CSC1CC(=O)N(CCCCCC(=O)NC(C(=O)NC(CCCNC(N)=O)C(=O)Nc2ccc(COC(=O)N[C@H]3C[C@H](O[C@H]4C[C@](O)(C(=O)CO)Cc5c(O)c6c(c(O)c54)C(=O)c4c(OC)cccc4C6=O)O[C@@H](C)[C@H]3O)cc2)C(C)C)C1=O)NC(=O)CNC(=O)[C@H](CCCCN)NC(=O)COCCOCCNC(=O)COCCOCCNC(=O)[C@H](CCC(=O)O)NC(=O)CCCCCCCCCCCCCCCCC(=O)O)C(=O)N[C@@H](CC(N)=O)C(=O)N[C@@H](CC(=O)O)C(=O)N[C@@H](CCCNC(=N)N)C(=O)N[C@@H](CCC(N)=O)C(=O)N[C@H](C(=O)N1CCC[C@H]1C(=O)NCC(=O)N[C@@H](Cc1ccc(O)cc1)C(=O)N[C@@H](CO)C(=O)N[C@H](C(=O)N[C@@H](Cc1ccc(O)cc1)C(=O)N[C@@H](Cc1c[nH]c2ccccc12)C(=O)NCC(=O)N[C@@H](CC(=O)O)C(=O)N[C@@H](Cc1ccccc1)C(N)=O)[C@@H](C)O)[C@@H](C)CC (some centres undefined) ({C18 diacid}-E[AEEA][AEEA]KGC(X1)GSDINDRQIPGYSTYWGDF-NH2)
[1]
  IC50: 15 nM
[2]
  IC50: 576 nM
[3]
  IC50: 10500 nM
[4]
  IC50 at 24 h: 23200 nM
[5]
  half-life: 2.62 h
[6]
  CL: 0.001 mg/ng/mL/h
[7]
  AUCt: 55100 ng·h/mL
[8]
  AUC(0-inf): 57800 ng·h/mL
[9]
  AUMC: 217552.348 ng/mL.hr^2
[10]
  MRT: 3.78 h
[11]
  Kd: 1.72 nM
[12]
  Drug uptake: Active
[13]
  Drug uptake: Not_active
[14]
  Activity: Active; Exhibited Apoptosis Primarily In Early Stage
[15]
  viability at 0.016 µM: 50.3%
[16]
  Activity: 39.7%
[17]
  Activity: 9.51%
[18]
  Activity: 0.5%
[19]
  viability at 0.015 µM: 80.1%
[20]
  Activity: 13.3%
[21]
  Activity: 5.59%
[22]
  Activity: 1.02%
[23]
  Activity: Non-toxic
[24]
  Activity: inactive
[25]
  Activity: Non-toxic
[26]
  Activity: Active
[27]
  Activity: Non-toxic
[28]
  Activity: Non-toxic
[29]
  Activity: Non-toxic
[30]
  Activity: Non-toxic
[31]
  Activity: Non-toxic
[32]
  Activity: Toxic
[33]
  Activity: Toxic
[34]
  k el at 12 h: 8.92e-05 s⁻¹
